What all share (assay): cell-based
One assay has as its target hNav1.3 (Homo sapiens, UniProt Q9NY46). Particulars: IonWorks Quattro, hNav1.3, read-out: IWQ Use Nav1.3. (In general: In patch-clamp work, channel activity is measured electrically.)
A further assay deals with hNav1.7 (Homo sapiens, UniProt Q15858). The class given is cell-based. Particulars: IonWorks Quattro, hNav1.7, read-out: IWQ Use Nav1.7.
A further assay addresses hNav1.5 (Homo sapiens, UniProt Q14524). Particulars: IonWorks Quattro, hNav1.5, read-out: IWQ Use Nav1.5.

Each structure is given as a SMILES string. Read-outs that look alike come from different tables or passages of the source. Positions of bridges follow the written chain, without caps; N, C: chain ends. Non-standard residues stand in square brackets, D forms with d. Residues, ends and D or L forms follow the SMILES beside them. Cit = NC(=O)NCCC[C@H](N)C(=O)O

hNav1.3, sequence (Q9NY46 whole entry, looked up): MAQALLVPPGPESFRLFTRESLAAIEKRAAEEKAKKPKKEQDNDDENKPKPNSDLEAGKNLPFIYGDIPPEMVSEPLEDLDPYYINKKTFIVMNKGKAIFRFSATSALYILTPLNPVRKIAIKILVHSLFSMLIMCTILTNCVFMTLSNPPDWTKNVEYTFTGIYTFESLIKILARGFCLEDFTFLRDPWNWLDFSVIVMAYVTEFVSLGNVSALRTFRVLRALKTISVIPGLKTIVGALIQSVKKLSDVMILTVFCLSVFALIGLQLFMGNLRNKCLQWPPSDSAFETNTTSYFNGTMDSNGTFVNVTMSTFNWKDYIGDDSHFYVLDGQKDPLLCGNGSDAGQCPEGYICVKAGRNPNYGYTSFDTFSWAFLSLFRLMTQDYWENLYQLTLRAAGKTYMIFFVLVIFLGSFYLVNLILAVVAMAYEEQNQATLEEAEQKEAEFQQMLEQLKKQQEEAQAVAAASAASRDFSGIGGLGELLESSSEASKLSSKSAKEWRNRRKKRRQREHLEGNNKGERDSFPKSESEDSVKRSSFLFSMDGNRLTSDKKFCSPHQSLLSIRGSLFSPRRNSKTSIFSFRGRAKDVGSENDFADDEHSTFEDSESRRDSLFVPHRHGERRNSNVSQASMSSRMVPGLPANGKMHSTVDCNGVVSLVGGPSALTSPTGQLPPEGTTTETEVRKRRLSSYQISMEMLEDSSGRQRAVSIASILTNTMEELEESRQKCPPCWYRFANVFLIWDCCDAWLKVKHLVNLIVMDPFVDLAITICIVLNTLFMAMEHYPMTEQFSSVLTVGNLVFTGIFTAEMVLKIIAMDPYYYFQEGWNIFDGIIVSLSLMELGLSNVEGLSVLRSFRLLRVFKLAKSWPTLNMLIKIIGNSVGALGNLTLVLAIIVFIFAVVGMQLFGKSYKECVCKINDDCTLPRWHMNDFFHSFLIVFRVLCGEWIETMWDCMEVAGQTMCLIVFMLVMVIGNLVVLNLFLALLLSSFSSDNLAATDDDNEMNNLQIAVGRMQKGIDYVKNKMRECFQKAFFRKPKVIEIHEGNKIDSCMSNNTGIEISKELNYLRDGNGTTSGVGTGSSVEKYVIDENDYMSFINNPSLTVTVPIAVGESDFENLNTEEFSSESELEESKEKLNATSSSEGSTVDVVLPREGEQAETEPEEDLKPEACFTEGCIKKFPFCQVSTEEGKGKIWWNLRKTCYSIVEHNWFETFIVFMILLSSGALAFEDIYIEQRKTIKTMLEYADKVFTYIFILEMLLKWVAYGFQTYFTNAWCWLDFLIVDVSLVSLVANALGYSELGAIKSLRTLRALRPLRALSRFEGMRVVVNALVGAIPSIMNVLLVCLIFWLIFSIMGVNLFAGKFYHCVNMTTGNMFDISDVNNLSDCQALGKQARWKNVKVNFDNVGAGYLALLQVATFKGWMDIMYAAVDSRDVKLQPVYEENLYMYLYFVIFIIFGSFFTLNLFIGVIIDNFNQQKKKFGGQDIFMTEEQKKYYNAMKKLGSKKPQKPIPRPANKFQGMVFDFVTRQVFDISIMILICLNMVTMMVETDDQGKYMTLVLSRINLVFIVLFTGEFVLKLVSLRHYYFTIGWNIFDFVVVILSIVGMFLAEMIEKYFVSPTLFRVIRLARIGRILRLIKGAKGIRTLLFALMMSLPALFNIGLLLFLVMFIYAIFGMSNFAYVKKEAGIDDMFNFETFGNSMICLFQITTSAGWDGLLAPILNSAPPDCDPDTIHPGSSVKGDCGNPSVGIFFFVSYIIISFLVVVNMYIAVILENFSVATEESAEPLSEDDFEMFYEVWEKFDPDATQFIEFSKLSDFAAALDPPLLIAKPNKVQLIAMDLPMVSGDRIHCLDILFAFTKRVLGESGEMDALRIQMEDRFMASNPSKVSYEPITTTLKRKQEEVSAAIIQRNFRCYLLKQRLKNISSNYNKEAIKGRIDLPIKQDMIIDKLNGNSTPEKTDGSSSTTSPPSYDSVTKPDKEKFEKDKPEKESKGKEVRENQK
hNav1.7, sequence (Q15858 whole entry, looked up): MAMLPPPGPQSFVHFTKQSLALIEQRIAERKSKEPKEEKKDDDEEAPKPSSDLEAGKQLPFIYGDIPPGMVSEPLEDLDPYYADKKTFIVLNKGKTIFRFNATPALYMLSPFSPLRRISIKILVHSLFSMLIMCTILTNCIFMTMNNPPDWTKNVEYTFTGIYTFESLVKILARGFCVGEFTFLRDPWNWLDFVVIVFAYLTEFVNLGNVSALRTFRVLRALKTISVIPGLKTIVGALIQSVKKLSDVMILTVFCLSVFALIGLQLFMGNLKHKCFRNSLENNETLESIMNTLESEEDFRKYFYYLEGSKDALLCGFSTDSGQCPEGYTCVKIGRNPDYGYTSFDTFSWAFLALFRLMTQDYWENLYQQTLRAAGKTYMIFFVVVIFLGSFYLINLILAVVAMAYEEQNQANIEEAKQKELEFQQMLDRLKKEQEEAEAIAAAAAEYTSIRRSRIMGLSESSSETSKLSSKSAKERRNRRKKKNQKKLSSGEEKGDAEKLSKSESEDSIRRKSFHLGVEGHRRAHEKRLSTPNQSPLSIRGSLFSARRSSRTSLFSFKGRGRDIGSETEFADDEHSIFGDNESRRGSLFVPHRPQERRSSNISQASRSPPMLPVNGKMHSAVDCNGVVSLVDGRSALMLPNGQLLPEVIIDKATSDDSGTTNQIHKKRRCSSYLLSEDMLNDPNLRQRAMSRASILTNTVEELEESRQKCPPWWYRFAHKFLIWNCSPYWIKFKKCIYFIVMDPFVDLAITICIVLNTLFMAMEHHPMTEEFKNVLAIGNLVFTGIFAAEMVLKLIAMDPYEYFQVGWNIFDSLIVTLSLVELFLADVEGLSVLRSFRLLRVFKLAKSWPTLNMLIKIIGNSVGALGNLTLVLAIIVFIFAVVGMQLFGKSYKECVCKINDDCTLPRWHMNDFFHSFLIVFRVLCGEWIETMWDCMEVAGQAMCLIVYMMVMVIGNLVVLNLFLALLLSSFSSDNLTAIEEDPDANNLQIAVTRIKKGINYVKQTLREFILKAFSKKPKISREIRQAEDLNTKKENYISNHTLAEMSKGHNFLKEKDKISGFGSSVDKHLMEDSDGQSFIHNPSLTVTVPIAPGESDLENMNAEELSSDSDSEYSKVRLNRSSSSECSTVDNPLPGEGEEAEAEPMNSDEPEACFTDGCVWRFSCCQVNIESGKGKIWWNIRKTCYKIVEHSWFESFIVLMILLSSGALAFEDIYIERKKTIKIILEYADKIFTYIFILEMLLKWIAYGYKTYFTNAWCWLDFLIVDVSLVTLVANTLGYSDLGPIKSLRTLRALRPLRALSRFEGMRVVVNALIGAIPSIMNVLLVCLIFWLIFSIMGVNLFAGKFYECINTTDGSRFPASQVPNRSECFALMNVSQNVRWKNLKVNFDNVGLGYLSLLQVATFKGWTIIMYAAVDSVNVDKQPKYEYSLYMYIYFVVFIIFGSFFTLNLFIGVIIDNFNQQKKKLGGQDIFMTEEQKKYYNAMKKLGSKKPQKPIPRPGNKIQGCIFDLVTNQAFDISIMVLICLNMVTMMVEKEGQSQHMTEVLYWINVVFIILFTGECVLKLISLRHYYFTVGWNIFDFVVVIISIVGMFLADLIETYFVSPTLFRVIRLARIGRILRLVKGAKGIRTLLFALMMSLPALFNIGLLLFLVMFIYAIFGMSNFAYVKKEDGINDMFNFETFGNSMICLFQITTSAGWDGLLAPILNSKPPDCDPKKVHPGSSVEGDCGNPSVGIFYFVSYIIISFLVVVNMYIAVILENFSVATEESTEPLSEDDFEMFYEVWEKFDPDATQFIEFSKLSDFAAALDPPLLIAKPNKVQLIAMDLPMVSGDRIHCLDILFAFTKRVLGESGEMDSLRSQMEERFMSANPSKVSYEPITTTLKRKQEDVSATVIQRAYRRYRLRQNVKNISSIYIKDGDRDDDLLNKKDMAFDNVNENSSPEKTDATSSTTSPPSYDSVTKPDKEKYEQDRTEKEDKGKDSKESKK

For `CC[C@H](C)[C@@H]1NC(=O)[C@@H]2CSSC[C@@H]3NC(=O)[C@H](C(C)C)NC(=O)[C@H](CC(C)C)NC(=O)[C@H](CC(N)=O)NC(=O)[C@@H]4CCCN4C(=O)[C@H](CCCNC(=N)N)NC(=O)[C@H](CSSC[C@H](NC(=O)[C@@H](N)CC(=O)O)C(=O)N[C@@H](CC(C)C)C(=O)NCC(=O)N[C@@H](C(C)C)C(=O)N[C@@H](CCSC)C(=O)N[C@@H](CCCNC(=N)N)C(=O)N[C@@H](CCCCN)C(=O)N2)NC(=O)[C@H](CSSC[C@@H](C(=O)N[C@@H](CCCCN)C(=O)N[C@@H](Cc2ccc(O)cc2)C(=O)N[C@H](C(=O)N[C@@H](Cc2ccccc2)C(N)=O)C(C)C)NC(=O)[C@H](Cc2c[nH]c4ccccc24)NC(=O)[C@H](CCCCN)NC(=O)[C@H](Cc2c[nH]cn2)NC(=O)[C@H]([C@@H](C)O)NC(=O)[C@H](CCCNC(N)=O)NC(=O)[C@H](CO)NC3=O)NC(=O)[C@H](CCCCN)NC(=O)[C@H](CC(=O)O)NC(=O)[C@H](CC(N)=O)NC(=O)[C@H](CC(=O)O)NC(=O)[C@@H]2CCCN2C1=O` [compound 713] (H-DCLGVMRKCIPDNDKCCRPNLVCS[Cit]THKWCKYVF-NH2; disulfide 2-17, 9-23, 16-30), the IC50 turned out to be 4.2 µM on hNav1.3 (use-dependent protocol), 0.83 µM on hNav1.7 (use-dependent protocol) and 36 µM at hNav1.5 (use-dependent protocol).

Take `CSCC[C@@H]1NC(=O)[C@H]([C@@H](C)O)NC(=O)CNC(=O)[C@H](CC(C)C)NC(=O)[C@@H](NC(=O)[C@@H](N)CC(=O)O)CSSC[C@@H]2NC(=O)[C@@H]3CSSC[C@@H](C(=O)N[C@@H](CCCCN)C(=O)N[C@@H](Cc4ccc(O)cc4)C(=O)N[C@H](C(=O)N[C@@H](Cc4ccccc4)C(N)=O)C(C)C)NC(=O)[C@H](Cc4c[nH]c5ccccc45)NC(=O)[C@H](CCCCN)NC(=O)[C@H](Cc4c[nH]cn4)NC(=O)[C@H]([C@@H](C)O)NC(=O)[C@H](CCCNC(=N)N)NC(=O)[C@H](CO)NC(=O)[C@H](CSSC[C@H](NC(=O)[C@H](CCCCN)NC(=O)[C@H](CCCNC(=N)N)NC1=O)C(=O)N[C@@H](CC(=O)O)C(=O)N1CCC[C@H]1C(=O)N[C@@H](CC(=O)O)C(=O)N[C@@H](CC(N)=O)C(=O)N[C@@H](CC(=O)O)C(=O)N[C@@H](CCCCN)C(=O)N3)NC(=O)[C@H](C(C)C)NC(=O)[C@H](CC(C)C)NC(=O)[C@H](CC(N)=O)NC(=O)[C@@H]1CCCN1C(=O)[C@H](CCCNC(=N)N)NC2=O` [compound 714] (H-DCLGTMRKCDPDNDKCCRPNLVCSRTHKWCKYVF-NH2; disulfide 2-17, 9-23, 16-30): the values for the IC50 on hNav1.3 (use-dependent protocol), at hNav1.7 (use-dependent protocol) and on hNav1.5 (use-dependent protocol) were over 5 µM, 1.6 µM and 48 µM, respectively.

Take `CC[C@H](C)[C@@H]1NC(=O)[C@@H]2CSSC[C@@H]3NC(=O)[C@H](C(C)C)NC(=O)[C@H](CC(C)C)NC(=O)[C@H](CC(N)=O)NC(=O)[C@@H]4CCCN4C(=O)[C@H](CCCNC(=N)N)NC(=O)[C@H](CSSC[C@H](NC(=O)[C@@H](N)CC(=O)O)C(=O)N[C@@H](CC(C)C)C(=O)NCC(=O)N[C@@H](C)C(=O)N[C@@H](CCSC)C(=O)N[C@@H](CCCNC(=N)N)C(=O)N[C@@H](CCCCN)C(=O)N2)NC(=O)[C@H](CSSC[C@@H](C(=O)N[C@@H](CCCCN)C(=O)N[C@@H](Cc2ccc(O)cc2)C(=O)N[C@H](C(=O)N[C@@H](Cc2ccccc2)C(N)=O)C(C)C)NC(=O)[C@H](Cc2c[nH]c4ccccc24)NC(=O)CNC(=O)[C@H](Cc2c[nH]cn2)NC(=O)[C@H]([C@@H](C)O)NC(=O)[C@H](CCCNC(=N)N)NC(=O)[C@H](CO)NC3=O)NC(=O)[C@H](CCCCN)NC(=O)[C@H](CC(=O)O)NC(=O)[C@H](CC(N)=O)NC(=O)[C@H](CC(=O)O)NC(=O)[C@@H]2CCCN2C1=O` [compound 715] (H-DCLGAMRKCIPDNDKCCRPNLVCSRTHGWCKYVF-NH2; disulfide 2-17, 9-23, 16-30): the IC50 on hNav1.3 (use-dependent block) was over 5 µM; on hNav1.7 (use-dependent block), 1 µM; on hNav1.5 (use-dependent block), over 50 µM.

For `CCCC[C@@H]1NC(=O)[C@H](C)NC(=O)CNC(=O)[C@H](CC(C)C)NC(=O)[C@@H](NC(=O)[C@@H](N)CC(=O)O)CSSC[C@@H]2NC(=O)[C@@H]3CSSC[C@@H](C(=O)N[C@@H](CCCCN)C(=O)N[C@@H](Cc4ccc(O)cc4)C(=O)N[C@H](C(=O)N[C@@H](Cc4ccccc4)C(N)=O)C(C)C)NC(=O)[C@H](Cc4c[nH]c5ccccc45)NC(=O)[C@H](CCCCN)NC(=O)[C@H](Cc4cnc[nH]4)NC(=O)[C@H]([C@@H](C)O)NC(=O)[C@H](CCCNC(=N)N)NC(=O)[C@H](CO)NC(=O)[C@H](CSSC[C@H](NC(=O)[C@H](CCCCN)NC(=O)[C@H](CCCNC(=N)N)NC1=O)C(=O)N[C@@H]([C@@H](C)CC)C(=O)N1CCC[C@H]1C(=O)N[C@@H](CC(=O)O)C(=O)N[C@@H](CC(N)=O)C(=O)N[C@@H](CC(=O)O)C(=O)N[C@@H](CCCCN)C(=O)N3)NC(=O)[C@H](C(C)C)NC(=O)[C@H](CC(C)C)NC(=O)[C@H](CC(N)=O)NC(=O)[C@@H]1CCCN1C(=O)[C@H](CCCNC(=N)N)NC2=O` [compound 721], the values for the IC50 on hNav1.3 (use-dependent block), on hNav1.7 (use-dependent block) and at hNav1.5 (use-dependent block) were 0.41 µM, 0.15 µM and 45 µM, respectively.

On to `CC(C)C[C@@H]1NC(=O)[C@H](C)NC(=O)CNC(=O)[C@H](CC(C)C)NC(=O)[C@@H](NC(=O)[C@@H](N)CC(=O)O)CSSC[C@@H]2NC(=O)[C@@H]3CSSC[C@@H](C(=O)N[C@@H](CCCCN)C(=O)N[C@@H](Cc4ccc(O)cc4)C(=O)N[C@H](C(=O)N[C@@H](Cc4ccccc4)C(N)=O)C(C)C)NC(=O)[C@H](Cc4c[nH]c5ccccc45)NC(=O)[C@H](CCCCN)NC(=O)[C@H](Cc4c[nH]cn4)NC(=O)[C@H]([C@@H](C)O)NC(=O)[C@H](CCCNC(=N)N)NC(=O)[C@H](CO)NC(=O)[C@H](CSSC[C@H](NC(=O)[C@H](CCCCN)NC(=O)[C@H](CCCNC(=N)N)NC1=O)C(=O)N[C@@H](CCC(=O)O)C(=O)N1CCC[C@H]1C(=O)N[C@@H](CC(=O)O)C(=O)N[C@@H](CC(N)=O)C(=O)N[C@@H](CC(=O)O)C(=O)N[C@@H](CCCCN)C(=O)N3)NC(=O)[C@H](C(C)C)NC(=O)[C@H](CC(C)C)NC(=O)[C@H](CC(N)=O)NC(=O)[C@@H]1CCCN1C(=O)[C@H](CCCNC(=N)N)NC2=O` [compound 723], for which the IC50 was 1.2 µM at hNav1.3 (use-dependent block), 0.38 µM at hNav1.7 (use-dependent block) and over 50 µM at hNav1.5 (use-dependent block).

With `CC(C)C[C@@H]1NC(=O)[C@@H](NC(=O)[C@@H](N)CC(=O)O)CSSC[C@@H]2NC(=O)[C@@H]3CSSC[C@@H](C(=O)N[C@@H](CCCCN)C(=O)N[C@@H](Cc4ccc(O)cc4)C(=O)N[C@H](C(=O)N[C@@H](Cc4ccccc4)C(N)=O)C(C)C)NC(=O)[C@H](Cc4c[nH]c5ccccc45)NC(=O)[C@H](CCCCN)NC(=O)[C@H](Cc4c[nH]cn4)NC(=O)[C@H]([C@@H](C)O)NC(=O)[C@H](CCCNC(=N)N)NC(=O)[C@H](CO)NC(=O)[C@H](CSSC[C@H](NC(=O)[C@H](CCCCN)NC(=O)[C@H](CCCNC(=N)N)NC(=O)[C@H](Cc4ccccc4)NC(=O)[C@H](C)NC(=O)CNC1=O)C(=O)N[C@@H](CCC(=O)O)C(=O)N1CCC[C@H]1C(=O)N[C@@H](CC(=O)O)C(=O)N[C@@H](CC(N)=O)C(=O)N[C@@H](CC(=O)O)C(=O)N[C@@H](CCCCN)C(=O)N3)NC(=O)[C@H](C(C)C)NC(=O)[C@H](CC(C)C)NC(=O)[C@H](CC(N)=O)NC(=O)[C@@H]1CCCN1C(=O)[C@H](CCCNC(=N)N)NC2=O` [compound 724] (H-DCLGAFRKCEPDNDKCCRPNLVCSRTHKWCKYVF-NH2; disulfide 2-17, 9-23, 16-30), the IC50 at hNav1.3 (use-dependent block) was 0.32 µM; at hNav1.7 (use-dependent block) it was 0.38 µM; on hNav1.5 (use-dependent block) it was 36 µM.

With `CC[C@H](C)[C@@H]1NC(=O)[C@@H]2CSSC[C@@H]3NC(=O)[C@H](C(C)C)NC(=O)[C@H](CC(C)C)NC(=O)[C@H](CC(N)=O)NC(=O)[C@@H]4CCCN4C(=O)[C@H](CCCNC(=N)N)NC(=O)[C@H](CSSC[C@H](NC(=O)[C@@H](N)CC(=O)O)C(=O)N[C@@H](CC(C)C)C(=O)NCC(=O)N[C@@H](C)C(=O)N[C@@H](CC(C)C)C(=O)N[C@@H](CCCNC(=N)N)C(=O)N[C@@H](CCCCN)C(=O)N2)NC(=O)[C@H](CSSC[C@@H](C(=O)N[C@@H](CCCCN)C(=O)N[C@@H](Cc2ccc(O)cc2)C(=O)N[C@H](C(=O)N[C@@H](Cc2ccccc2)C(N)=O)C(C)C)NC(=O)[C@H](Cc2c[nH]c4ccccc24)NC(=O)[C@H](CCCCN)NC(=O)[C@H](Cc2c[nH]cn2)NC(=O)[C@H]([C@@H](C)O)NC(=O)[C@H](CCCNC(=N)N)NC(=O)[C@H](CO)NC3=O)NC(=O)[C@H](CCCCN)NC(=O)[C@H](CC(=O)O)NC(=O)[C@H](CC(N)=O)NC(=O)[C@H](CCC(=O)O)NC(=O)[C@@H]2CCCN2C1=O` [compound 726], the IC50 is 0.58 µM at hNav1.3 (use-dependent block), 0.35 µM on hNav1.7 (use-dependent block) and over 50 µM on hNav1.5 (use-dependent block).

As to `CC[C@H](C)[C@@H]1NC(=O)[C@@H]2CSSC[C@@H]3NC(=O)[C@H](C(C)C)NC(=O)[C@H](CC(C)C)NC(=O)[C@H](CC(N)=O)NC(=O)[C@@H]4CCCN4C(=O)[C@H](CCCNC(=N)N)NC(=O)[C@H](CSSC[C@H](NC(=O)[C@@H](N)CC(=O)O)C(=O)N[C@@H](CC(C)C)C(=O)NCC(=O)N[C@@H](C)C(=O)N[C@@H](CC(C)C)C(=O)N[C@@H](CCCNC(=N)N)C(=O)N[C@@H](CCCCN)C(=O)N2)NC(=O)[C@H](CSSC[C@@H](C(=O)N[C@@H](CCCCN)C(=O)N[C@@H](Cc2ccc(O)cc2)C(=O)N[C@H](C(=O)N[C@@H](Cc2ccccc2)C(N)=O)C(C)C)NC(=O)[C@H](Cc2c[nH]c4ccccc24)NC(=O)[C@H](CCC(=O)O)NC(=O)[C@H](Cc2c[nH]cn2)NC(=O)[C@H]([C@@H](C)O)NC(=O)[C@H](CCCNC(=N)N)NC(=O)[C@H](CO)NC3=O)NC(=O)[C@H](CCCCN)NC(=O)[C@H](CC(=O)O)NC(=O)[C@H](CC(N)=O)NC(=O)[C@H](CC(=O)O)NC(=O)[C@@H]2CCCN2C1=O` [compound 728], the IC50 on hNav1.3 (use-dependent block) is 6.6 µM; at hNav1.7 (use-dependent block), 1.6 µM; on hNav1.5 (use-dependent block), 43 µM.

Source of the values: patent US9340590B2 (priority 2011, dated 2016).
